Numbered stars: 1 amine (or outer) side, 2 acyl side, 3 side chain; on linkers, the order of the positions; unused ones are H or OH. Bridge positions count the residues as written; N and C are the ends. Square brackets hold non-standard residues; d marks the D form. Peptide text beside a SMILES is read from it. I, II: the chains in the order shown. X2 = O=C(CCOCCOCCOCCOCCOCCOCCOCCOCCOCCOCCOCCOCCOCCOCCOCCOCCOCCOCCOCCOCCOCCOCCOCCOCCOCCC(=O)[*:2])[*:1]; Phe(4-COOH) = N[C@@H](Cc1ccc(C(=O)O)cc1)C(=O)O; Phe(4-tBu) = CC(C)(C)c1ccc(C[C@H](N)C(=O)O)cc1; Bip = N[C@@H](Cc1ccc(-c2ccccc2)cc1)C(=O)O; 2Nal = N[C@@H](Cc1ccc2ccccc2c1)C(=O)O; Diglycolyl = O=C(COCC(=O)[*:2])[*:1]; NMeR = CN[C@@H](CCCNC(=N)N)C(=O)O; β3hE = N[C@@H](CCC(=O)O)CC(=O)O; NMeK = CN[C@@H](CCCCN)C(=O)O; Pen = CC(C)(S)[C@H](N)C(=O)O

T1 sequence (Q00651 34-1039 limits assumed): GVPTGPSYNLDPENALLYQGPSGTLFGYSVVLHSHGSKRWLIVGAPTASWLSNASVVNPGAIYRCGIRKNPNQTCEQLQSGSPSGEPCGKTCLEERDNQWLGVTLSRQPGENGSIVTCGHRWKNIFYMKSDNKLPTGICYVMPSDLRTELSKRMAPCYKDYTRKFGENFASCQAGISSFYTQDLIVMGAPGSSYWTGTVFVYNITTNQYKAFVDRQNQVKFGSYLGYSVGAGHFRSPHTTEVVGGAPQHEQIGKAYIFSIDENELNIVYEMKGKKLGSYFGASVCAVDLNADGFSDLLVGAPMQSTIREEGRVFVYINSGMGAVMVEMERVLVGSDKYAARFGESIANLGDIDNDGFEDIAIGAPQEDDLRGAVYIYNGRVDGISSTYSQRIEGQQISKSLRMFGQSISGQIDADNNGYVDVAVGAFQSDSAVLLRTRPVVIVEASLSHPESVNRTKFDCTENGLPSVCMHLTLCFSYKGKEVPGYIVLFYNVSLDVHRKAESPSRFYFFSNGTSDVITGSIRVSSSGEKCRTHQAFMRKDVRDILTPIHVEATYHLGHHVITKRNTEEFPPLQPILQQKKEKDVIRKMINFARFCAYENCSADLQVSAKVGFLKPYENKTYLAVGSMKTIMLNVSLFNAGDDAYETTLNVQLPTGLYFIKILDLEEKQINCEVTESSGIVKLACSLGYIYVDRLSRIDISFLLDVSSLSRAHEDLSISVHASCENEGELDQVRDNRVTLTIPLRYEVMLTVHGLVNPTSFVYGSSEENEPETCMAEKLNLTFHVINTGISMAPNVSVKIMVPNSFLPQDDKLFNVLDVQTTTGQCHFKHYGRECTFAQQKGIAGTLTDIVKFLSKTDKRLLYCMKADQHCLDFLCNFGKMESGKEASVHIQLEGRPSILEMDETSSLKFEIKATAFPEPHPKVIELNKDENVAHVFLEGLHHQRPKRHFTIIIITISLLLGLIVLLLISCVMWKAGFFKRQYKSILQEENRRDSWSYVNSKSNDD
T1 sequence (P26011 20-806): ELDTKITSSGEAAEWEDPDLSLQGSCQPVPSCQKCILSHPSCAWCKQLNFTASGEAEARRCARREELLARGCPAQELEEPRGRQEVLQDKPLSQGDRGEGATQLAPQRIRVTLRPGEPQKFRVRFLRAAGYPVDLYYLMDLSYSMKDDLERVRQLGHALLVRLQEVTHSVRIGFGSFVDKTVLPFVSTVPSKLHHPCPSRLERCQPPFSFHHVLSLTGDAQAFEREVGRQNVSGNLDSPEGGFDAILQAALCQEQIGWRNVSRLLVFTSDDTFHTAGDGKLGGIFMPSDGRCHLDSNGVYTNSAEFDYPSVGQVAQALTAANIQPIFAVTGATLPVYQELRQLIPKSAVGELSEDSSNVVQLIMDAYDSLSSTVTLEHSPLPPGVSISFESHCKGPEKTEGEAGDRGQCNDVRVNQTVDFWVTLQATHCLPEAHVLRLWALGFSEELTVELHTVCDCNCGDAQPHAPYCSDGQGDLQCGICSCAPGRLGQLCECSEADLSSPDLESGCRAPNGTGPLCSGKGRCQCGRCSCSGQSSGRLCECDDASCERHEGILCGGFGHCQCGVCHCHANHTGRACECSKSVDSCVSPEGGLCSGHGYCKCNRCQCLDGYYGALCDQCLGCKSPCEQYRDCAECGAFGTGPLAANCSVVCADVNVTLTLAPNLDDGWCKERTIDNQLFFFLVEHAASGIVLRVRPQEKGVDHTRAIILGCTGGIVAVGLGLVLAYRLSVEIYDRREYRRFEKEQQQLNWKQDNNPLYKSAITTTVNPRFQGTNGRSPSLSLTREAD

One assay has as its target T1, α4β7 (Mus musculus, UniProt P26011+Q00651).
T1 construct: host or cells: TK1 mouse T cells
In words: α4β7 Cell Adhesion Assay (Mouse), TK1 cells. The class given is cell-based. The conditions noted are these: Table 3-B, Potency (α4β7); range classes; read-out: α4β7 cell(MU) IC50. How it is done:
TK1 cells (ATCC # ATCC-CRL-2396) were cultured in RPMI 1640 with 2 mM L-glutamine adjusted to contain 1.5 g/L sodium bicarbonate, 4.5 g/L glucose, 10 mM HEPES, and 1.0 mM sodium pyruvate (ATCC#30-2001) and supplemented with 0.1 mM non-essential amino acids, (ATCC #30-2116) 0.05 mM 2-mercaptoethanol (Invitrogen #21985) and 10% serum (Fetal Bovine Serum, Invitrogen #16140-071), and Penicillin-Streptomycin (Invitrogen #15140-122) at 100 units of penicillin and 100 μg of streptomycin per ml. The cells were washed two times in DMEM medium (ATCC #30-2002) supplemented with 0.1% BSA, 10 mM HEPES pH 7 and 1 mM MnCl2. The cells were re-suspended in supplemented DMEM medium at a density of 4×10^6 cells/ml.
A Nunc MaxiSorp plate was coated with Recombinant human MAdCAM-1 Fc Chimera (R&D #6065-MC) at 200 ng per well in 100 μl per well in 1×PBS and incubated at 4° C. overnight. The solution was then removed by shaking, blocked with 250 ul per well PBS containing 1% BSA, and incubated at 37° C. for 1 hr. The solution was removed by shaking. DATK 32 (anti-mouse α4β7) and peptides were diluted by serial dilution in a final volume of 50 ul per well (2× concentration). To each well, 50 ul of cells (200,000 cells) are added and the plate is incubated at 37° C., 5% CO2 for 30-45 min to allow cell adhesion. The plate was manually washed three times with supplemented DMEM, 100 ul per wash. After the final wash, 100 ul/well of supplemented DMEM and […] of MTT reagent (ATTC cat#30-1010K) was added to each well. Wells were incubated at 37° C. with 5% CO2 for 2-3 hrs until purple precipitate was visible. 100 μl of Detergent Reagent (ATTC cat#30-1010K) was added to each well. The plate was then wrapped with Para film to prevent evaporation, and left overnight at room temperature in the dark. The plate was shaken for 5 min and the absorbance at 570 nm was measured. To calculate the dose response, the absorbance value of control wells not containing cells was subtracted from each test well.
By IC50 is commonly meant the point on the concentration scale where inhibition reaches its midpoint. On to `CC(=O)N[C@@H]1C(=O)N(C)[C@@H](CCCNC(=N)N)C(=O)N[C@@H](CO)C(=O)N[C@@H](CC(=O)O)C(=O)N[C@@H]([C@@H](C)O)C(=O)N[C@@H](CC(C)C)C(=O)N[C@H](C(=O)N[C@@H](Cc2ccc(C(=O)O)cc2)C(=O)N[C@@H](CCC(=O)O)CC(=O)N(C)[C@@H](CCCCNC(=O)COCC(=O)NCCCC[C@@H](C(N)=O)N(C)C(=O)C[C@H](CCC(=O)O)NC(=O)[C@H](Cc2ccc(C(=O)O)cc2)NC(=O)[C@H]2NC(=O)[C@H](CC(C)C)NC(=O)[C@H]([C@@H](C)O)NC(=O)[C@H](CC(=O)O)NC(=O)[C@H](CO)NC(=O)[C@H](CCCNC(=N)N)N(C)C(=O)[C@@H](NC(C)=O)C(C)(C)SSC2(C)C)C(N)=O)C(C)(C)SSC1(C)C` [compound 148] (I: Ac-[Pen][NMeR]SDTL[Pen][Phe(4-COOH)][β3hE][NMeK]-NH2 / II: Ac-[Pen][NMeR]SDTL[Pen][Phe(4-COOH)][β3hE][NMeK]-NH2; disulfide I:1-I:7, II:1-II:7; linker I:10-II:10 via Diglycolyl), for which the IC50 is less than 10 nM.

`CC(=O)N[C@@H]1C(=O)N(C)[C@@H](CCCNC(=N)N)C(=O)N[C@@H](CO)C(=O)N[C@@H](CC(=O)O)C(=O)N[C@@H]([C@@H](C)O)C(=O)N[C@@H](CC(C)C)C(=O)N[C@H](C(=O)N[C@@H](Cc2ccc(C(C)(C)C)cc2)C(=O)N[C@@H](CCC(=O)O)CC(=O)N(C)[C@@H](CCCCNC(=O)COCC(=O)NCCCC[C@@H](C(N)=O)N(C)C(=O)C[C@H](CCC(=O)O)NC(=O)[C@H](Cc2ccc(C(C)(C)C)cc2)NC(=O)[C@H]2NC(=O)[C@H](CC(C)C)NC(=O)[C@H]([C@@H](C)O)NC(=O)[C@H](CC(=O)O)NC(=O)[C@H](CO)NC(=O)[C@H](CCCNC(=N)N)N(C)C(=O)[C@@H](NC(C)=O)C(C)(C)SSC2(C)C)C(N)=O)C(C)(C)SSC1(C)C` [compound 149] (I: Ac-[Pen][NMeR]SDTL[Pen][Phe(4-tBu)][β3hE][NMeK]-NH2 / II: Ac-[Pen][NMeR]SDTL[Pen][Phe(4-tBu)][β3hE][NMeK]-NH2; disulfide I:1-I:7, II:1-II:7; linker I:10-II:10 via Diglycolyl): the IC50 is less than 10 nM.

Turning to `CC(=O)N[C@@H]1C(=O)N(C)[C@@H](CCCNC(=N)N)C(=O)N[C@@H](CO)C(=O)N[C@@H](CC(=O)O)C(=O)N[C@@H]([C@@H](C)O)C(=O)N[C@@H](CC(C)C)C(=O)N[C@H](C(=O)N[C@@H](Cc2ccc(-c3ccccc3)cc2)C(=O)N[C@@H](CCC(=O)O)CC(=O)N(C)[C@@H](CCCCNC(=O)COCC(=O)NCCCC[C@@H](C(N)=O)N(C)C(=O)C[C@H](CCC(=O)O)NC(=O)[C@H](Cc2ccc(-c3ccccc3)cc2)NC(=O)[C@H]2NC(=O)[C@H](CC(C)C)NC(=O)[C@H]([C@@H](C)O)NC(=O)[C@H](CC(=O)O)NC(=O)[C@H](CO)NC(=O)[C@H](CCCNC(=N)N)N(C)C(=O)[C@@H](NC(C)=O)C(C)(C)SSC2(C)C)C(N)=O)C(C)(C)SSC1(C)C` [compound 150] (I: Ac-[Pen][NMeR]SDTL[Pen][Bip][β3hE][NMeK]-NH2 / II: Ac-[Pen][NMeR]SDTL[Pen][Bip][β3hE][NMeK]-NH2; disulfide I:1-I:7, II:1-II:7; linker I:10-II:10 via Diglycolyl), the IC50 is less than 10 nM.

As for `CC(=O)N[C@@H]1C(=O)N(C)[C@@H](CCCNC(=N)N)C(=O)N[C@@H](CO)C(=O)N[C@@H](CC(=O)O)C(=O)N[C@@H]([C@@H](C)O)C(=O)N[C@@H](CC(C)C)C(=O)N[C@H](C(=O)N[C@@H](Cc2ccc(C(C)(C)C)cc2)C(=O)N[C@@H](CCC(=O)O)CC(=O)O)C(C)(C)SSC1(C)C` [compound 152] (Ac-[Pen][NMeR]SDTL[Pen][Phe(4-tBu)][β3hE]-OH; disulfide 1-7), the half-inhibitory concentration (IC50) is less than 10 nM.

As to `CC(=O)N[C@@H]1C(=O)N(C)[C@@H](CCCNC(=N)N)C(=O)N[C@@H](CO)C(=O)N[C@@H](CC(=O)O)C(=O)N[C@@H]([C@@H](C)O)C(=O)N[C@@H](CC(C)C)C(=O)N[C@H](C(=O)N[C@@H](Cc2ccc(C(C)(C)C)cc2)C(=O)N[C@@H](CCC(=O)O)CC(=O)N[C@H](CCCCN)C(N)=O)C(C)(C)SSC1(C)C` [compound 153] (Ac-[Pen][NMeR]SDTL[Pen][Phe(4-tBu)][β3hE][dK]-NH2; disulfide 1-7), the half-maximal inhibitory concentration (IC50) was 10 to 25 nM.

A further assay deals with α4β1 (Homo sapiens, UniProt P05556+P13612). Briefly: α4β1-VCAM Cell Adhesion Assay (Jurkat E6.1 human cells). Further details: host or cells: Jurkat E6.1 human T cells. To be noted: Table 4-B; read-out: Cell Adhesion α4β1 IC50. The format is cell-based. How it is done: Jurkat E6.1 human cells (Sigma #88042803) were cultured in RPMI 1640 HEPES medium (Invitrogen #22400-089) supplemented with 10% serum (Fetal Bovine Serum, Invitrogen #16140-071), 1 mM sodium pyruvate (Invitrogen #11360-070), 2 mM L-glutamine (Invitrogen #25030-081) and Penicillin-Streptomycin (Invitrogen #15140-122) at 100 units of penicillin and 100 μg of streptomycin per ml. The cells were washed two times in DMEM medium (ATCC #30-2002) supplemented with 0.1% BSA, 10 mM HEPES pH 7 and 1 mM MnCl2. The cells were re-suspended in supplemented DMEM medium at a density of 4×10^6 cells/ml.
Chain of α4β1 (P13612 34-1032): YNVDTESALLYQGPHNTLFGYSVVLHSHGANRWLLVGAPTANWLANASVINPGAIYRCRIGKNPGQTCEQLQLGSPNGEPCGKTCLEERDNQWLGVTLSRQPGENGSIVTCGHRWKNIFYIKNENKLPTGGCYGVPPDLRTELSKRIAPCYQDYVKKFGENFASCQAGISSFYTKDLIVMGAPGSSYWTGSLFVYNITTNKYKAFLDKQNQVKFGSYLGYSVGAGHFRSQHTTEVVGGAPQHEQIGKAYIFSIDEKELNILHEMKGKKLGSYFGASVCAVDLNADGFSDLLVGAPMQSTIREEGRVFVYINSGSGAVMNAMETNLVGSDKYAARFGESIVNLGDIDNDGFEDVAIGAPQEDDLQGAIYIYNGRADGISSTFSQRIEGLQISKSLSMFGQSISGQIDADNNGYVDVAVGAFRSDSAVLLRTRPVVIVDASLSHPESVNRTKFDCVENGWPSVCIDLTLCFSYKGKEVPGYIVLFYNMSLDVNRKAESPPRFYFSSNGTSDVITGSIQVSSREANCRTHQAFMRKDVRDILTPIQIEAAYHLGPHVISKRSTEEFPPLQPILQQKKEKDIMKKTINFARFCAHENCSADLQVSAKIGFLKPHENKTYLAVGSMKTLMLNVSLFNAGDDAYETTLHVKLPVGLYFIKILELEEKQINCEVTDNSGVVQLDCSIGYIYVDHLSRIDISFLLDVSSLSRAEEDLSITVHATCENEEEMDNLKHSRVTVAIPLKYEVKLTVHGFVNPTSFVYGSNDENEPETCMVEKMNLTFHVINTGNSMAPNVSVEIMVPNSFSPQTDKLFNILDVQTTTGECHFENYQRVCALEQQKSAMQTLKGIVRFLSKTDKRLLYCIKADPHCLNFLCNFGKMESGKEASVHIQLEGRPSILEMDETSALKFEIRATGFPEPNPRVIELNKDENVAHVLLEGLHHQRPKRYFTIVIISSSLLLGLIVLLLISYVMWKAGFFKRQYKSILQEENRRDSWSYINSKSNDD
Chain of α4β1 (P05556 21-798): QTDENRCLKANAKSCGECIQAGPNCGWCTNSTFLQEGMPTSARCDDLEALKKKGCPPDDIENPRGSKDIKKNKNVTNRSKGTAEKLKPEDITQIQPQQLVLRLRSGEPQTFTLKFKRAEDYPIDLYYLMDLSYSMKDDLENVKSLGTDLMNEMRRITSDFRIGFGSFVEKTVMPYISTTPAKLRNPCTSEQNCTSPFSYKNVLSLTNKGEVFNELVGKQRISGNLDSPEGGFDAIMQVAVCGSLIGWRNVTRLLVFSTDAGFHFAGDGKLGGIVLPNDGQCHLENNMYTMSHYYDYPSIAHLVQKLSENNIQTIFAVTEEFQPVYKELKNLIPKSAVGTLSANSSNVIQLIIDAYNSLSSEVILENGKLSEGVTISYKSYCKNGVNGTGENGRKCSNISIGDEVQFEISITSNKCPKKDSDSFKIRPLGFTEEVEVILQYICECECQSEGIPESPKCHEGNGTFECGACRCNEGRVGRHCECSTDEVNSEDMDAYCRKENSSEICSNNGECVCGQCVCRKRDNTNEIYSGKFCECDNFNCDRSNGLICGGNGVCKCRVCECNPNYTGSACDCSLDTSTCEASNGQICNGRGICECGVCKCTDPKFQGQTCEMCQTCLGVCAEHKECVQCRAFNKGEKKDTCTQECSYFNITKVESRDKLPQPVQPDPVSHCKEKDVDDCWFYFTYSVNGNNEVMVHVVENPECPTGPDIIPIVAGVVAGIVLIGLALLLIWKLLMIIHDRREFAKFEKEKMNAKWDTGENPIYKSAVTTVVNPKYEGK
A Nunc MaxiSorp plate was coated with rh VCAM-1/CD106 Fc chimera (R&D #862-VC) at 400 ng per well in 50 ul per well in 1×PBS and incubated at 4° C. overnight. The solution was then removed by shaking, blocked with 250 ul per well PBS containing 1% BSA, and incubated at 37° C. for 1 hr. The solution was removed by shaking. Peptides were diluted by serial dilution in a final volume of 50 ul per well (2× concentration). To each well, 50 ul of cells (200,000 cells) were added and the plate was incubated at 37° C., 5% CO2 for 30-45 min to allow cell adhesion. The wells were washed manually three times (100 ul per wash) with supplemented DMEM. After the final wash, 100 ul/well of supplemented DMEM and 10 ul/well of MTT reagent (ATTC cat#30-1010K) were added. The plate was incubated at 37° C., 5% CO2 for 2-3 hrs until a purple precipitate was visible. 100 ul of Detergent Reagent (ATTC cat#30-1010K) was added to each well. The plate was covered from the light, wrapped in Parafilm to prevent evaporation, and left overnight at room temperature in the dark. The plate was shaken for 5 min and the absorbance at 570 nm was measured. To calculate the dose response, the absorbance value of control wells not containing cells was subtracted from each test well.
Consider `CC(=O)N[C@H]1CSSC[C@@H](C(=O)NCC(=O)N[C@@H](CCC(=O)O)C(=O)N[C@@H](CCCCN)C(N)=O)NC(=O)[C@H](CC(C)C)NC(=O)[C@H]([C@@H](C)O)NC(=O)[C@H](CC(=O)O)NC(=O)[C@H](CO)NC(=O)[C@H](CCCNC(=N)N)NC1=O` [compound 196, Ac-C-R-S-D-T-L-C-G-E-K-NH2] (Ac-CRSDTLCGEK-NH2; disulfide 1-7), for which the half-inhibitory concentration (IC50) is more than 100000 nM.

As to `CC(=O)N[C@H]1CSSC[C@@H](C(=O)NCC(=O)N[C@@H](CCC(=O)O)C(=O)N[C@@H](CCCCNC(=O)CCOCCOCCOCCOCCOCCOCCOCCOCCOCCOCCOCCOCCOCCOCCOCCOCCOCCOCCOCCOCCOCCOCCOCCOCCOCCC(=O)NCCCC[C@H](NC(=O)[C@H](CCC(=O)O)NC(=O)CNC(=O)[C@@H]2CSSC[C@H](NC(C)=O)C(=O)N[C@@H](CCCNC(=N)N)C(=O)N[C@@H](CO)C(=O)N[C@@H](CC(=O)O)C(=O)N[C@@H]([C@@H](C)O)C(=O)N[C@@H](CC(C)C)C(=O)N2)C(N)=O)C(N)=O)NC(=O)[C@H](CC(C)C)NC(=O)[C@H]([C@@H](C)O)NC(=O)[C@H](CC(=O)O)NC(=O)[C@H](CO)NC(=O)[C@H](CCCNC(=N)N)NC1=O` [compound 197, (Ac-C-R-S-D-T-L-C-G-E-K-NH2)2-PEG25] (I: Ac-CRSDTLCGEK-NH2 / II: Ac-CRSDTLCGEK-NH2; disulfide I:1-I:7, II:1-II:7; linker I:10-II:10 via X2), the 50% inhibitory concentration (IC50) was more than 100000 nM.

With `CC(=O)N[C@H]1CSSC[C@@H](C(=O)NCC(=O)N[C@@H](CCC(=O)O)C(N)=O)NC(=O)[C@H](CC(C)C)NC(=O)[C@H]([C@@H](C)O)NC(=O)[C@H](CC(=O)O)NC(=O)[C@H](CO)NC(=O)[C@H](CCCNC(=N)N)N(C)C1=O` [compound 198, Ac-C-N-Me-R-S-D-T-L-C-G-E-NH2] (Ac-C[NMeR]SDTLCGE-NH2; disulfide 1-7), the 50% inhibitory concentration (IC50) is more than 100000 nM.

Consider `CC(=O)N[C@H]1CSSC(C)(C)[C@@H](C(=O)N[C@H](CCCCN)C(N)=O)NC(=O)[C@H](CC(C)C)NC(=O)[C@H]([C@@H](C)O)NC(=O)[C@H](CC(=O)O)NC(=O)[C@H](CO)NC(=O)[C@H](CCCNC(=N)N)N(C)C1=O` [compound 202, Ac-C-N-Me-R-S-D-T-L-Pen-k-NH2] (Ac-C[NMeR]SDTL[Pen][dK]-NH2; disulfide 1-7), for which the IC50 was more than 100000 nM.

On to `CC(=O)N[C@@H]1C(=O)N(C)[C@@H](CCCNC(=N)N)C(=O)N[C@@H](CO)C(=O)N[C@@H](CC(=O)O)C(=O)N[C@@H]([C@@H](C)O)C(=O)N[C@@H](CC(C)C)C(=O)N[C@H](C(=O)N[C@@H](Cc2ccc3ccccc3c2)C(=O)N[C@@H](CCC(=O)O)C(=O)N[C@H](CCCCN)C(N)=O)C(C)(C)SSC1(C)C` [compound 210, Ac-Pen-N-Me-R-S-D-T-L-Pen-2-Nal-E-k-NH2] (Ac-[Pen][NMeR]SDTL[Pen][2Nal]E[dK]-NH2; disulfide 1-7), for which the IC50 was more than 100000 nM.

Source of the values: US9809623B2, “α4β7 peptide monomer and dimer antagonists” (Protagonist Therapeutics, Inc., priority 2014, dated 2017).
